In publication PMC7933434, “Entropy-driven binding of gut bacterial β-glucuronidase inhibitors ameliorates irinotecan-induced toxicity” (Communications Biology, 2021):
Values joined by “and” are separate entries in the source; they are usually repeats but may differ in a detail not shown here. Identical values can stand only once. Like-named read-outs stand apart in the source and are kept apart here.

Tests used:
[1] = biological target: LgGUS (Lactobacillus gasseri GUS) (Lactobacillus gasseri, UniProt Q9AHJ8); experiment: GUS inhibition assay, hydrolysis of 4-methylumbelliferyl-β-glucuronide, LgGUS; assay type: biochemical; details: LgGUS; 50 mM sodium acetate pH 4.5, 37 °C
[2] = biological target: EcGUS (Escherichia coli GUS) (Escherichia coli, UniProt P05804); experiment: biochemical
[3] = biological target: EcGUS (Escherichia coli, UniProt P05804); experiment: Isothermal titration calorimetry, EcGUS; assay type: binding; details: EcGUS, 298 K
[4] = biological target: BdGUS (Bifidobacterium dentium, UniProt D2Q7B1); experiment: biochemical; assay type: binding; details: BdGUS; Tris buffer (250 mM NaCl, 20 mM Tris, pH 8.0); 298 K
[5] = biological target: BdGUS (Bifidobacterium dentium GUS) (Bifidobacterium dentium, UniProt D2Q7B1); experiment: biochemical; set-up: GUS activity (hydrolysis rate of MUG) / 1/v: unit not given here
[6] = Tris buffer (250 mM NaCl, 20 mM Tris, pH 8.0)
[7] = phosphate buffer (250 mM NaCl, 20 mM KH2PO4, 100 mM Na2HPO4, pH 8.0)
[8] = [Inhibitor 1] = 6.25 nM, [MUG] 0.375 mM
[9] = [Inhibitor 1] = 6.25 nM, [MUG] 0.75 mM
[10] = [Inhibitor 1] = 6.25 nM, [MUG] 1.5 mM
[11] = [Inhibitor 1] = 6.25 nM, [MUG] 3 mM
[12] = [Inhibitor 1] = 12.5 nM, [MUG] 0.375 mM
[13] = [Inhibitor 1] = 12.5 nM, [MUG] 0.75 mM
[14] = [Inhibitor 1] = 12.5 nM, [MUG] 1.5 mM
[15] = [Inhibitor 1] = 12.5 nM, [MUG] 3 mM
[16] = [Inhibitor 1] = 25 nM, [MUG] 0.375 mM
[17] = [Inhibitor 1] = 25 nM, [MUG] 0.75 mM
[18] = [Inhibitor 1] = 25 nM, [MUG] 1.5 mM
[19] = [Inhibitor 1] = 25 nM, [MUG] 3 mM
[20] = [Inhibitor1] = 50 nM, [MUG] 0.375 mM
[21] = [Inhibitor1] = 50 nM, [MUG] 0.75 mM
[22] = [Inhibitor1] = 50 nM, [MUG] 1.5 mM
[23] = [Inhibitor1] = 50 nM, [MUG] 3 mM

BdGUS (Bifidobacterium dentium GUS), sequence (D2Q7B1 1-668): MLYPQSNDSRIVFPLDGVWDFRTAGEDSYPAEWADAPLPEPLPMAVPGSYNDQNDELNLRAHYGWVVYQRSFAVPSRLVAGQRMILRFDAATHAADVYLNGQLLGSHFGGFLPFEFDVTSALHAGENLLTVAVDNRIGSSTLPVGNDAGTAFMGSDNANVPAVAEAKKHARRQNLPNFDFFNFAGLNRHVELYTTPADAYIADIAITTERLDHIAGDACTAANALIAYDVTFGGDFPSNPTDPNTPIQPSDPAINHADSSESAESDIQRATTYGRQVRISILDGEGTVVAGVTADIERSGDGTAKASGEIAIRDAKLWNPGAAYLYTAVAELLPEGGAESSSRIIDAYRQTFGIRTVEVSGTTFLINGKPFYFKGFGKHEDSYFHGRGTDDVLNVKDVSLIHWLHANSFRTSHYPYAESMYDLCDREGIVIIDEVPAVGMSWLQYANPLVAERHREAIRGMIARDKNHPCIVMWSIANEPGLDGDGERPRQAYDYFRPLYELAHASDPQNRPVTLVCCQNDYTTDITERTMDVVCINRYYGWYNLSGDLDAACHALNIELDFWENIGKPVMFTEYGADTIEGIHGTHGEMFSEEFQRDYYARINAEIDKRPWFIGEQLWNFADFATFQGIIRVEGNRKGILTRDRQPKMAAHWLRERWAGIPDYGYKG
BdGUS, sequence (D2Q7B1 entry or part of it): as the sequence (D2Q7B1 1-668) above
EcGUS, sequence (P05804 whole entry): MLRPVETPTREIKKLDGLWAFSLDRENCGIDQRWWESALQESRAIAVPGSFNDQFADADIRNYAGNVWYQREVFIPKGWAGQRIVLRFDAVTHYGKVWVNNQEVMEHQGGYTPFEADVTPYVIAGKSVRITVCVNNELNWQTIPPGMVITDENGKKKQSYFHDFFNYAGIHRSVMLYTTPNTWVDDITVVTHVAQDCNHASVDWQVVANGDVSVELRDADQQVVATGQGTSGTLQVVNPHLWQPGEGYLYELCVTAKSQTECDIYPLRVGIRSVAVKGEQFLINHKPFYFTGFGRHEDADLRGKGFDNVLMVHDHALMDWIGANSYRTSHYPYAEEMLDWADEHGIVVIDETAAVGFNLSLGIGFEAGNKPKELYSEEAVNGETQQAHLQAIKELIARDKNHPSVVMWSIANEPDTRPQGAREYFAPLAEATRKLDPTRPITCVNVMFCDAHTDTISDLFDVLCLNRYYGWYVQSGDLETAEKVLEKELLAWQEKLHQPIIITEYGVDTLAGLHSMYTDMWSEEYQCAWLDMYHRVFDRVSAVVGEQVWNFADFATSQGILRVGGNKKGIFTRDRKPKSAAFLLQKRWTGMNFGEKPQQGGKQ
EcGUS (Escherichia coli GUS), sequence (P05804 whole entry): as above
LgGUS (Lactobacillus gasseri GUS), sequence (Q9AHJ8 1-598): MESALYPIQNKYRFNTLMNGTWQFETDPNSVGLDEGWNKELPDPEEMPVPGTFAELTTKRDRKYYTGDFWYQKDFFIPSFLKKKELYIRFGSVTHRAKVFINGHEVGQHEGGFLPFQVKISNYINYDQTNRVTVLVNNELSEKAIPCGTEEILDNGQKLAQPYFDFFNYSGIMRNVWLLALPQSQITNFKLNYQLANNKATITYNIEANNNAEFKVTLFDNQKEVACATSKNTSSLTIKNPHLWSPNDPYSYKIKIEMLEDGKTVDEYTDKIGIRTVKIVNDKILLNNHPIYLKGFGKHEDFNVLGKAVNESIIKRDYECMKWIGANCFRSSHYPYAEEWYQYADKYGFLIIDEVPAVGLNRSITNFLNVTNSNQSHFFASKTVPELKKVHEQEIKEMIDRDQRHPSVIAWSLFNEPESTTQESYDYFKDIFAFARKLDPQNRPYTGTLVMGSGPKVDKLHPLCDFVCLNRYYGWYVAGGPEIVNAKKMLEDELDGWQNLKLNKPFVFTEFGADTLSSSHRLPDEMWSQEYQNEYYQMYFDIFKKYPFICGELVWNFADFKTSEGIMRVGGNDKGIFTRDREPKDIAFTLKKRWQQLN

O=C(O)[C@H]1CNC[C@@H](O)[C@@H]1O [Inhibitor 1, Uronic isofagomine]
Ki [1]: 110 ± 33 nM | Ki [2]: 0.016 µM | Ki ([2]; 50 mM HEPES pH 7.5, 37 °C): 0.016 ± 0.002 µM | Ki ([2]; source data of Table 1, from plot of apparent Km against [inhibitor] (μM)): 0.0155 µM | Kd [3, 6]: 20 ± 2 nM | ΔG [3, 6]: –10.63 ± 0.075 kcal/mol | —TΔS [3, 6]: –1.51 ± 0.20 kcal/mol | Kd [3, 7]: 60 ± 1 nM | ΔG [3, 7]: –9.89 ± 0.01 kcal/mol | ΔH [3, 7]: –9.48 ± 0.29 kcal/mol | —TΔS [3, 7]: –0.41 ± 0.30 kcal/mol | Kd [4]: 300 ± 60 nM | ΔG [4]: –8.91 ± 0.13 kcal/mol | ΔH [4]: –10.47 kcal/mol | —TΔS [4]: 1.56 ± 0.37 kcal/mol | Ki ([5]; BdGUS): 7.4 nM | 1/v [5, 8]: 0.8126 and 0.846 and 0.7526 | GUS activity (hydrolysis rate of MUG) [5, 8]: 0.2748 and 0.264 and 0.2967 | 1/v [5, 9]: 0.5186 and 0.5024 and 0.468 | GUS activity (hydrolysis rate of MUG) [5, 9]: 0.4306 and 0.4444 and 0.4771 | 1/v [5, 10]: 0.3591 and 0.3484 and 0.3239 | GUS activity (hydrolysis rate of MUG) [5, 10]: 0.6217 and 0.6409 and 0.6893 | 1/v [5, 11]: 0.2793 and 0.2899 and 0.2702 | GUS activity (hydrolysis rate of MUG) [5, 11]: 0.7996 and 0.7703 and 0.8263 | 1/v [5, 12]: 1.155 and 1.089 and 1.043 | GUS activity (hydrolysis rate of MUG) [5, 12]: 0.1934 and 0.2051 and 0.2141 | 1/v [5, 13]: 0.6535 and 0.6591 and 0.6116 | GUS activity (hydrolysis rate of MUG) [5, 13]: 0.3417 and 0.3388 and 0.3651 | 1/v [5, 14]: 0.4306 and 0.4268 and 0.4023 | GUS activity (hydrolysis rate of MUG) [5, 14]: 0.5186 and 0.5232 and 0.555 | 1/v [5, 15]: 0.3354 and 0.3372 and 0.306 | GUS activity (hydrolysis rate of MUG) [5, 15]: 0.6657 and 0.6621 and 0.7298 | 1/v [5, 16]: 1.814 and 1.753 and 1.625 | GUS activity (hydrolysis rate of MUG) [5, 16]: 0.1231 and 0.1273 and 0.1374 | 1/v [5, 17]: 0.8901 and 1.007 and 0.9854 | GUS activity (hydrolysis rate of MUG) [5, 17]: 0.2509 and 0.2218 and 0.2266 | 1/v [5, 18]: 0.5908 and 0.5953 and 0.5748 | GUS activity (hydrolysis rate of MUG) [5, 18]: 0.3779 and 0.3751 and 0.3885 | 1/v [5, 19]: 0.423 and 0.431 and 0.4024 | GUS activity (hydrolysis rate of MUG) [5, 19]: 0.5279 and 0.5181 and 0.5549 | 1/v [5, 20]: 3.2999 and 3.135 and 3.11 | GUS activity (hydrolysis rate of MUG) [5, 20]: 0.06767 and 0.07122 and 0.07181 | 1/v [5, 21]: 1.905 and 1.744 and 1.761 | GUS activity (hydrolysis rate of MUG) [5, 21]: 0.1172 and 0.128 and 0.1268 | 1/v [5, 22]: 0.9882 and 1.034 and 0.9748 | GUS activity (hydrolysis rate of MUG) [5, 22]: 0.226 and 0.216 and 0.2291 | 1/v [5, 23]: 0.6379 and 0.6438 and 0.6305 | GUS activity (hydrolysis rate of MUG) [5, 23]: 0.35 and 0.3468 and 0.3542
